The source of these data is patent publication US8697382B2, “Method of identifying metallo-β-lactamase-producing bacteria” (Meiji Seika Pharma Co., Ltd., priority 2009, dated 2014).

The subject of the experiment is IMP-1-producing Pseudomonas aeruginosa. Put plainly: Disk diffusion test: β-lactam agent disks placed 20 mm from a central compound (I) disk; growth inhibition zone radius measured. In kind it is cell-based. The note with it: Muller-Hinton agar, overnight culture at 35° C.; for Ratio = Maximum/Minimum inhibition zone radius (degree of change in radius, A3/B3/C3): change caused by the compound (I) disk; for Inhibition zone radius, Maximum (A2/B2/C2): subzone on the compound (I) (disodium 2,3-diethylmaleate) disk side, subject to the metallo-β-lactamase inhibitor; for Inhibition zone radius, Minimum (A1/B1/C1): subzone on the side opposite to the compound (I) disk, not subject to the metallo-β-lactamase inhibitor. The text has this: When the bacteria to be tested are MBL-producing bacteria, the shape of an inhibition zone formed around each β-lactam agent varies depending on the effect of the metallo-β-lactamase inhibitor (compound (I)). In this case, the inhibition zone formed around each β-lactam agent can be divided into two subzones (i.e., an inhibition subzone formed on the side opposite to the compound (I)-containing disk and an inhibition subzone formed on the compound (I)-containing disk side) by measurement along the center lines of the β-lactam agent-containing and compound (I)-containing disks (FIG. 1).
The inhibition subzone formed on the side opposite to the compound (I)-containing disk is not subject to the effect of the metallo-β-lactamase inhibitor. Thus, its radius can be minimized in the whole inhibition zone (e.g., the numerical value obtained here can be defined as “A1”, “B1” and “C1” for the β-lactam agents (A), (B) and (C), respectively (Table 1)). When no inhibition zone is formed, the radius of the disk can be used.
The inhibition subzone formed on the compound (I)-containing disk side is subject to the effect of the metallo-β-lactamase inhibitor. Thus, its radius can be maximized in the whole inhibition zone (e.g., the numerical value obtained here can be defined as “A2”, “B2” and “C2” for the β-lactam agents (A), (B) and (C), respectively (Table 1)). When no inhibition zone is formed, the radius of the disk can be used. Moreover, when the formed inhibition zone is wider than the distance between the disks, the distance from the center of the drug-containing disk to the compound (I)-containing disk can be used (e.g., “A2” in the flow 8 in the flowchart of FIG. 2 represents the distance from the center of the β-lactam agent (A)-containing disk to the compound (I)-containing disk).
The degree of change in the shape of the inhibition zone caused by the effect of the metallo-β-lactamase inhibitor can be measured as the ratio between the minimum and maximum radiuses of the inhibition zone, i.e., the degree of change in radius. For example, it can be calculated by dividing the maximum radius of the inhibition zone by the minimum radius thereof (e.g., this calculated value can be defined as “A3”, “B3”, and “C3”, respectively (Table 1)).
According to the disk diffusion method specified by CLSI, a Muller-Hinton agar medium was coated with a bacterial solution adjusted to McFarland standard turbidity of 0.5. No water droplet of the bacterial solution on the medium surface was confirmed, and round filter papers (diameter: approximately 6 mm) respectively containing 300 μg of a compound (I), 100 μg of biapenem as a drug (A), 100 μg of imipenem as a drug (B), and 300 μg of ceftazidime as a drug (C) were placed thereonto as drug-containing disks. The compound (I) used was a compound represented by the formula (I) wherein both R^1 and R^2 are an ethyl group, and M^1 is a sodium cation (disodium 2,3-diethylmaleate). The compound (I) was placed at the center of the agar medium, while the drugs (A) to (C) were placed such that the center of each disk was 20 mm distant from the center of the compound (I). After overnight culture at 35° C., the minimum and maximum radiuses of a growth inhibition zone around each disk were measured, and the degree of change in radius was calculated according to Table 1. The IMP or VIM MBL-producing bacteria were identified using a decision flow of FIG. 2.
In Example 2, bacteria to be tested were IMP-1-producing Pseudomonas aeruginosa. According to the disk diffusion method specified by CLSI, a Muller-Hinton agar medium was coated with the Pseudomonas aeruginosa, and disks were then placed thereonto.
In FIG. 4, the upper disk contained biapenem (BIPM) (A); the lower right disk contained imipenem (IPM) (B); the lower left disk contained ceftazidime (CAZ) (C); and the central disk was a compound (I)-containing disk. […]
A general note: Agar diffusion results depend on both activity and mobility in agar.

Take `C[C@@H](O)[C@H]1C(=O)N2C(C(=O)[O-])=C(SC3Cn4cnc[n+]4C3)[C@H](C)[C@H]12` (stereo partly drawn) [biapenem]: the “Ratio = Maximum/Minimum inhibition zone radius (degree of change in radius, A3/B3/C3)” value is 2.9; the “Inhibition zone radius, Maximum (A2/B2/C2)” value was 16.0 mm; the “Inhibition zone radius, Minimum (A1/B1/C1)” value came to 5.5 mm.

On to `CC(C)(O/N=C(\C(=O)N[C@@H]1C(=O)N2C(C(=O)[O-])=C(C[n+]3ccccc3)CS[C@H]12)c1csc(N)n1)C(=O)O` [ceftazidime], for which the “Ratio = Maximum/Minimum inhibition zone radius (degree of change in radius, A3/B3/C3)” value turned out to be 4.1; the “Inhibition zone radius, Maximum (A2/B2/C2)” value was 14.5 mm; the “Inhibition zone radius, Minimum (A1/B1/C1)” value came to 3.5 mm.

In the case of `C[C@@H](O)[C@H]1C(=O)N2C(C(=O)O)=C(SCCN=CN)C[C@H]12` [imipenem], the “Ratio = Maximum/Minimum inhibition zone radius (degree of change in radius, A3/B3/C3)” value came to 2.2; the “Inhibition zone radius, Maximum (A2/B2/C2)” value worked out at 14.0 mm; the “Inhibition zone radius, Minimum (A1/B1/C1)” value was 6.5 mm.
